Experimental data published in patent US7531482B2, “Thieno-pyrimidine compounds having fungicidal activity” (Dow AgroSciences LLC, priority 2005, dated 2009).

How the values were obtained:
Assay type in all cases: in vivo
[1] = system: Colletotricum lagenarium; test: Cucumber Anthracnose (COLLLA) whole-plant disease control test; details: 200 ppm applied to foliage of cucumber, inoculated one day after treatment; for pest or weed control at 200 ppm: Cucumis sativus, foliar, read-out: COLLLA disease control
[2] = system: Erysiphe cichoracaerum; test: Cucumber Powdery Mildew (ERYSCI) whole-plant disease control test; details: 200 ppm applied to foliage of cucumber, inoculated one day after treatment; for pest or weed control at 200 ppm: Erysiphe, foliar, read-out: ERYSCI disease control
[3] = system: Leptosphaeria nodorum; test: Glume Blotch of Wheat (LEPTNO) whole-plant disease control test; details: for pest or weed control at 200 ppm: read-out: LEPTNO disease control
[4] = system: Phytophthora infestans; test: whole plant or invertebrate; details: inoculated one day after treatment; for pest or weed control at 200 ppm: Phytophthora infestans, in Solanum lycopersicum, foliar, read-out: PHYTIN disease control, 200 ppm applied to foliage of tomato
[5] = system: Puccinia recondita tritici; test: Leaf Rust of Wheat (PUCCRT) whole-plant disease control test; details: 200 ppm applied to foliage of wheat, inoculated one day after treatment; for pest or weed control at 200 ppm: Puccinia recondita, foliar, read-out: PUCCRT disease control
[6] = system: Magnaporthe grisea=Pyricularia oryzae; test: whole plant or invertebrate; details: for pest or weed control at 200 ppm: read-out: PYRIOR disease control, 200 ppm applied to foliage of rice
[7] = system: Mycosphaerella graminicola=Septoria tritici; test: Speckled Leaf Blotch of Wheat (SEPTTR) whole-plant disease control test; details: 75 ppm applied to foliage of wheat; for pest or weed control at 75 ppm: Mycosphaerella, foliar, read-out: SEPTTR disease control
[8] = Parastagonospora nodorum, foliar, 200 ppm applied to foliage of wheat, inoculated one day after treatment
[9] = Pyricularia oryzae, foliar, inoculated one day after treatment

Row | SMILES | pest or weed control at 200 ppm [1] | pest or weed control at 200 ppm [2] | pest or weed control at 200 ppm [3, 8] | pest or weed control at 200 ppm [4] | pest or weed control at 200 ppm [5] | pest or weed control at 200 ppm [6, 9] | pest or weed control at 75 ppm [7] | pest or weed control at 75 ppm ([3]; Parastagonospora nodorum, foliar, 75 ppm (footnote b), wheat foliage) | pest or weed control at 8.3 ppm ([6]; Pyricularia oryzae, foliar, read-out: PYRIOR disease control, 8.3 ppm (footnote c), rice foliage) | COLLLA disease control [1] | ERYSCI disease control [2] | LEPTNO disease control ([3]; 200 ppm applied to foliage of wheat, inoculated one day after treatment) | PHYTIN disease control ([4]; 200 ppm applied to foliage of tomato) | PUCCRT disease control [5] | PYRIOR disease control ([6]; 200 ppm applied to foliage of rice, inoculated one day after treatment) | SEPTTR disease control [7]
1 | CC(C)(C)OC(=O)c1ccc(Oc2ccc(CCNc3ncnc4scc(Cl)c34)cc2)cc1 [Compound 6] | 50 to 79% | 80 to 100% | 0 to 49% | 50 to 79% | 80 to 100% | 80 to 100% | 50 to 79% | – | – | – | – | – | – | – | – | –
2 | CO/N=C(\C)c1cnc(Oc2ccc(CCNc3ncnc4scc(Cl)c34)cc2)s1 [Compound 48] | 50 to 79% | 80 to 100% | 0 to 49% | 80 to 100% | 80 to 100% | 80 to 100% | 50 to 79% | – | – | – | – | – | – | – | – | –
3 | Clc1csc2ncnc(NCCc3ccc(Oc4ccc(Br)cn4)cc3)c12 [Compound 7, {2-[4-(5-Bromopyridin-2-yloxy)phenyl]ethyl}-(5-chlorothieno[2,3-d]pyrimidin-4-yl}amine] | 50 to 79% | 80 to 100% | 80 to 100% | 0 to 49% | 80 to 100% | 50 to 79% | 50 to 79% | – | – | – | – | – | – | – | – | –
4 | FC(F)(F)c1ccc(COc2ccc(CCNc3ncnc4scc(Cl)c34)cc2)o1 [Compound 105] | 0 to 49% | 0 to 49% | 0 to 49% | 0 to 49% | 50 to 79% | 80 to 100% | 0 to 49% | – | – | – | – | – | – | – | – | –
5 | Fc1cnc(C(F)(F)F)c(F)c1Oc1ccc(CCNc2ncnc3scc(Cl)c23)cc1 [Compound 61] | 80 to 100% | 80 to 100% | 50 to 79% | 0 to 49% | 80 to 100% | 80 to 100% | 80 to 100% | – | – | – | – | – | – | – | – | –
6 | CS(=O)(=O)c1cccc(Oc2ccc(CCNc3ncnc4scc(Cl)c34)cc2)n1 [Compound 91] | 0 to 49% | 50 to 79% | 80 to 100% | 80 to 100% | 80 to 100% | 80 to 100% | 0 to 49% | – | – | – | – | – | – | – | – | –
7 | N#Cc1nc(Cl)ccc1Oc1ccc(CCNc2ncnc3scc(Cl)c23)cc1 [Compound 58] | 0 to 49% | 0 to 49% | 50 to 79% | 0 to 49% | 80 to 100% | 80 to 100% | 50 to 79% | – | – | – | – | – | – | – | – | –
8 | FC(F)(F)c1ccnc(Oc2ccc(CCNc3ncnc4scc(Cl)c34)cc2)c1 [Compound 12] | 50 to 79% | 80 to 100% | 80 to 100% | 50 to 79% | 80 to 100% | 80 to 100% | 50 to 79% | – | – | – | – | – | – | – | – | –
9 | O=C(Oc1ccc(CCNc2ncnc3scc(Cl)c23)cc1)c1ccc(Cl)nc1 [Compound 15] | 0 to 49% | 0 to 49% | 50 to 79% | 0 to 49% | 80 to 100% | 80 to 100% | 0 to 49% | – | – | – | – | – | – | – | – | –
10 | Cc1cccc(Oc2ccc(CCNc3ncnc4scc(Cl)c34)cc2)n1 [Compound 85] | 50 to 79% | 80 to 100% | 80 to 100% | 80 to 100% | 80 to 100% | 80 to 100% | 80 to 100% | – | – | – | – | – | – | – | – | –
11 | [O-][n+]1ccccc1Oc1ccc(CCNc2ncnc3scc(Cl)c23)cc1 [Compound 19] | 0 to 49% | 50 to 79% | 0 to 49% | 80 to 100% | 80 to 100% | 80 to 100% | 50 to 79% | – | – | – | – | – | – | – | – | –
12 | COc1cc(C#N)cc(Oc2ccc(CCNc3ncnc4scc(Cl)c34)cc2)n1 [Compound 81] | 50 to 79% | 50 to 79% | 80 to 100% | 0 to 49% | 80 to 100% | 80 to 100% | 50 to 79% | – | – | – | – | – | – | – | – | –
13 | Clc1csc2ncnc(NCCc3ccc(Oc4ccccn4)cc3)c12 [Compound 18] | 0 to 49% | 80 to 100% | 0 to 49% | 80 to 100% | 80 to 100% | 80 to 100% | 50 to 79% | – | – | – | – | – | – | – | – | –
14 | COc1cc(Oc2ccc(CCNc3ncnc4scc(Cl)c34)cc2)c(Br)cn1 [Compound 87] | 0 to 49% | 80 to 100% | 50 to 79% | 50 to 79% | 80 to 100% | 80 to 100% | 50 to 79% | – | – | – | – | – | – | – | – | –
15 | Cc1cc(Br)cnc1Oc1ccc(CCNc2ncnc3scc(Cl)c23)cc1 [Compound 42] | 0 to 49% | 0 to 49% | 50 to 79% | 0 to 49% | 0 to 49% | 80 to 100% | 80 to 100% | – | – | – | – | – | – | – | – | –
16 | Cc1noc2ncnc(Oc3ccc(CCNc4ncnc5scc(Cl)c45)cc3)c12 [Compound 66] | 0 to 49% | 0 to 49% | 0 to 49% | 0 to 49% | 80 to 100% | 50 to 79% | 50 to 79% | – | – | – | – | – | – | – | – | –
17 | CC(C)c1cncnc1COc1ccc(CCNc2ncnc3scc(Cl)c23)cc1 [Compound 107] | 0 to 49% | 0 to 49% | 0 to 49% | 80 to 100% | 80 to 100% | 80 to 100% | 50 to 79% | – | – | – | – | – | – | – | – | –
18 | Clc1csc2ncnc(NCCc3ccc(Oc4cnccn4)cc3)c12 [Compound 38] | 50 to 79% | 50 to 79% | 0 to 49% | 50 to 79% | 80 to 100% | 50 to 79% | 50 to 79% | – | – | – | – | – | – | – | – | –
19 | O=C(Nc1ccc(CCNc2ncnc3scc(Cl)c23)cc1)c1ccnc(Cl)c1 [Compound 99, 2-Chloro-N-{4-[2-(5-chlorothieno[2,3,-d]pyrimidin-4-ylamino)ethyl]phenyl}isonicotinamide] | 50 to 79% | 0 to 49% | 0 to 49% | 50 to 79% | 80 to 100% | 80 to 100% | 0 to 49% | – | – | – | – | – | – | – | – | –
20 | COc1cc(CCNc2ncnc3scc(Cl)c23)ccc1Oc1cc(C(F)(F)F)ccn1 [Compound 124, (5-Chlorothieno[2,3-d]pyrimidin-4-yl)-{2-[3-methoxy-4-(4-trifluoromethylpyridin-2-yloxy)phenyl]ethyl}amine] | 50 to 79% | 80 to 100% | – | 50 to 79% | 80 to 100% | – | 0 to 49% | 0 to 49% | 80 to 100% | – | – | – | – | – | – | –
21 | FC(F)(F)c1ccc(Oc2ccc(CCNc3ncnc4scc(Cl)c34)cc2)nc1 [Compound 1, 5-(Chlorothieno[2,3-d]pyrimidin-4-yl)-{2-[4-(5-trifluoromethylpyridin-2-yloxy)phenyl]ethyl}amine] | 0 to 49% | 50 to 79% | 50 to 79% | 0 to 49% | 80 to 100% | 80 to 100% | 50 to 79% | – | – | – | – | – | – | – | – | –
22 | Clc1csc2ncnc(NCCc3ccc(Oc4ncnc5scc(Cl)c45)cc3)c12 [Compound 68] | – | – | – | – | – | – | – | – | – | * (* = 0–49 percent control) | * (* = 0–49 percent control) | * (* = 0–49 percent control) | ** (** = 50–79 percent control) | *** (*** = 80–100 percent control) | *** (*** = 80–100 percent control) | * (* = 0–49 percent control)
23 | FC(F)(F)c1cc(Oc2ccc(CCNc3ncnc4scc(Cl)c34)cc2)cc(C(F)(F)F)n1 [Compound 75] | 80 to 100% | 80 to 100% | 80 to 100% | 0 to 49% | 80 to 100% | 80 to 100% | 50 to 79% | – | – | – | – | – | – | – | – | –
24 | N#Cc1c(Cl)cncc1Oc1ccc(CCNc2ncnc3scc(Cl)c23)cc1 [Compound 71] | 80 to 100% | 50 to 79% | 80 to 100% | 0 to 49% | 80 to 100% | 80 to 100% | 80 to 100% | – | – | – | – | – | – | – | – | –
